pIC50, pKi: −log10 of the molar value.
How the values were obtained:
[1] = target: T1, C-X-C chemokine receptor type 2 (Homo sapiens, UniProt P25025); experiment: Antagonist activity at CXCR2 (unknown origin)
T1 sequence (P25025 whole entry): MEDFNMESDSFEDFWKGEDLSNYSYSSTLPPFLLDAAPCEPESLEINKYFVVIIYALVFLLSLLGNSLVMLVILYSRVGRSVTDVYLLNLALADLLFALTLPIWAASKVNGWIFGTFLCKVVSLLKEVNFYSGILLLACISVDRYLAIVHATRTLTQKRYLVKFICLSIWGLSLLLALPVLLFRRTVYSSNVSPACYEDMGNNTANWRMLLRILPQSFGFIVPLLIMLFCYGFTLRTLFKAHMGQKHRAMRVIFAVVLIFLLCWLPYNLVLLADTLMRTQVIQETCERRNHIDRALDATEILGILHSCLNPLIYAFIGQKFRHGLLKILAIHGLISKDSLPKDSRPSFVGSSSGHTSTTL

[2] = target: T2, Neuropeptide Y receptor type 1 (Homo sapiens, UniProt P25929); experiment: Displacement of 125I-PYY from human neuropeptide Y Y1 receptor expressed in human SK-N-MC cell membrane assessed as inhibition constant incubated for 1 hrs by competitive binding assay
T2 sequence (P25929 whole entry): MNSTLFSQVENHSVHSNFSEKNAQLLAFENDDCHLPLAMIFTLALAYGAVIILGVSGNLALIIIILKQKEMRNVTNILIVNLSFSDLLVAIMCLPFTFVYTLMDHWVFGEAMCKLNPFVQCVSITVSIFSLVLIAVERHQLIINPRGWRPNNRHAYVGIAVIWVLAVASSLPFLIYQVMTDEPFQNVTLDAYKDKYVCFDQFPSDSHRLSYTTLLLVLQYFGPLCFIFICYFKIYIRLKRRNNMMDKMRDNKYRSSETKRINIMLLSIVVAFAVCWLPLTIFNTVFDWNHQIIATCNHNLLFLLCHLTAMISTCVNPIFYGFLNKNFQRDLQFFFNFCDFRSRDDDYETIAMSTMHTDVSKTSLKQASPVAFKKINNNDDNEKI

[3] = target: T3, Bifunctional epoxide hydrolase 2 (Homo sapiens, UniProt P34913); experiment: Inhibition of recombinant soluble epoxide hydrolase (unknown origin) using [3H]1,3-diphenyl-trans-propene oxide as substrate assessed as inhibition constant incubated for 5 mins
T3 sequence (P34913 whole entry): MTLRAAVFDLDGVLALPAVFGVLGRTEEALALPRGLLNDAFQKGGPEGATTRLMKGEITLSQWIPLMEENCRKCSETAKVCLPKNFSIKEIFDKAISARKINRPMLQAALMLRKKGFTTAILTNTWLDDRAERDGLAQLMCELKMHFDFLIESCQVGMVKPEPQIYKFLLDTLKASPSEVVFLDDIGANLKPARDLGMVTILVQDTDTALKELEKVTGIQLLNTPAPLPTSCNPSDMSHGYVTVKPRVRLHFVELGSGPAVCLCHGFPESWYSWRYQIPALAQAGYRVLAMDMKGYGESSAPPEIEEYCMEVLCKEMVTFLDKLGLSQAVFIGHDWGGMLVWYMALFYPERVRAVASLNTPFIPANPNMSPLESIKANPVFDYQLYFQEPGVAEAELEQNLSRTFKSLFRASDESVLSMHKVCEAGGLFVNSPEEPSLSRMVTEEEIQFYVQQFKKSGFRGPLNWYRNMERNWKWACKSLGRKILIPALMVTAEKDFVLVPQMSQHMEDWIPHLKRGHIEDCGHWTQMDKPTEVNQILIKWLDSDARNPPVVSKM

pKi [2] | SMILES | other results
 | CN(C)C(=O)c1cccc(Nc2c(Nc3ccccc3)c(=O)c2=O)c1O [3-(3,4-dioxo-2-(phenylamino)cyclobut-1-enylamino)-2-hydroxy-N,N-dimethylbenzamide] | pIC50 [1]: 8.70
7.68 | COC(=O)C1=CNC(C)=C(C(=O)OC)C1c1cccc(Nc2c(NCCCN3CCC(c4cccc(OC)c4)CC3)c(=O)c2=O)c1 (stereo unspecified) | 
 | CCCCCCCCCCCCNC(=O)NC1CCCCC1 [US8815951, 297] | pKi [3]: 8.15
7.00 | COC(=O)C1=CNC(C)=C(C(=O)OC)C1c1cccc(Nc2nnc(CN3CCC(c4cccc(OC)c4)CC3)o2)c1 (stereo unspecified) | 
8.48 | COC(=O)C1=C(C)NC(C)=C(C(=O)OC)C1c1cccc(NC(=O)NCCCN2CCC(c3cccc(OC)c3)CC2)c1 | 
8.29 | COC(=O)C1=CNC(C)=C(C(=O)OC)C1c1cccc(N/C(=N/C#N)NCCCN2CCC(c3cccc(OC)c3)CC2)c1 (stereo unspecified) | 
